The values that follow come from a melting point compilation (Tetko et al.; mined from patent text by program, amines drawn as free bases though some values may be those of a salt).

Each structure is given as a SMILES string.

Regarding `COc1ccc(C2=NN(CC(=O)O)C(=O)[C@H]3CC=CC[C@@H]23)cc1OC` (relative stereo), the melting point (as a rule, the temperature, or range, at which the solid turns liquid) fell in the range of 178 to 180 °C.

As to `CC(=O)c1cccc(Nc2ccc3ccccc3n2)c1`, the melting point was 181 to 183 °C.

Molecule `FC(F)(F)c1cccc(-c2cc(CCl)on2)c1` returned a melting point of 33 to 37 °C.

`CCOC(=O)c1cn([C@@H](CSc2cccc(Cl)c2Cl)[C@H](C)O)cn1`: the melting point was in the range of 141 to 143 °C.

Consider `COc1cc(OC)cc(N2CCN(C(=O)Nc3cc4c(nc3OC)CCC4)CC2)c1`, for which the melting point was 143 to 144 °C.

For `CCOC(=O)C(=O)Nc1c([N+](=O)[O-])cc(S(=O)(=O)NC(=O)C(=O)OCC)c2c1CCCC2`, the melting point was 140 to 142 °C.

As for `O=C1ONCC12CCOc1ccc(F)cc12` (stereo not given), the melting point lay in the range of 153 to 155 °C.

`Cc1ccc(O)c(C(C)(C)CC(C)(C)C)c1` displayed a melting point of 42 to 45 °C.

With `NC(=O)c1ccc(C2CCCCCC2)c(Cl)c1`, the melting point was 152 to 155 °C.

Take `CCCCn1c(=O)n(C)c(=O)c2nc(-c3ccc(/C=C/C(=O)O)cc3)[nH]c21`: the melting point is greater than 300 °C.

Regarding `O=C(O)c1cccc2c1[nH]c1ccc(F)cc12`, the melting point came out at 254 °C.

The molecule `Cc1c(-c2ccc(Cl)cc2)[nH]c2ccc(OCc3ccccc3)cc12` registered a melting point of 134 to 136 °C.

Regarding `N#CC(C#N)=C1c2ccccc2-c2c(C(=O)OCCc3ccccc3)cccc21`, the melting point was 115 to 117 °C.

The molecule `CC/C=C(\c1ccccc1N1CCCCC1)C(C(N)=O)c1ccc(C(=O)O)cc1` (stereo not given) had a melting point of 174 to 175 °C.

For the molecule `CCC(CC)c1ccc(Cl)c2nc3n(c12)CCCC(=O)N3c1ccc(Cl)cc1Cl`, the melting point fell in the range of 135 to 137 °C.

Consider `COc1ccc(C2=NN(c3ccc(C4=NNC(=O)CC4C)cc3)C(=O)C3CC=CCC23)cc1Cl` (stereo not given), for which the melting point was in the range of 198 to 201 °C.

`O=C1Cc2cc(F)ccc2N1c1ccc(F)cc1` came in with a melting point of 135 to 140 °C.

For `OCc1ccc(-c2c3ccccc3nn2Cc2ccco2)cc1`, the melting point lay within 129 to 130 °C.

`O=c1nc(-c2c[nH]c3ccccc23)sc2ccccc12` returned a melting point of 276 to 277 °C.

`COC(=O)CC[C@H](NC(=O)c1ccc(C(CO)CCCc2c(N)nc(N)nc2O)cc1)C(=O)OC` (stereo not given in full) yielded a melting point of 104 °C.

With `COC(=O)c1ccc2[nH]c(=O)n(Cc3ccc(OC)cc3)c(=O)c2c1`, the melting point is 235 to 237 °C.

Turning to `CCOCCn1cc2c(C3C(=O)Nc4ccc(Cl)cc43)nc(NCCN(C)C)nc2n1` (stereo not given), the melting point was 293 to 295 °C.

Molecule `Cc1ccc2[nH]c3c(cc(-c4cccc(C=O)c4)c(=O)n3C)c2c1` returned a melting point of 280 °C.

Regarding `CON(C)C(=O)c1ccc(-c2ccc(CBr)cc2)cc1`, the melting point was in the range of 105 to 106 °C.

`O=C(Nc1ccc(Cl)cc1)c1cccc(Cl)c1` returned a melting point of 124 to 126 °C.

In turn, `CC(C)(C)OC(=O)Cn1cc(Cl)c(-c2cc(Cl)cc(Cl)c2)n1` displayed a melting point of 86 °C.

Take `COCc1c(C(=O)OC(C)(C)C)ncc2[nH]c3ccc(OCc4ccccc4)cc3c12`: the melting point fell in the range of 160 to 167 °C.

Regarding `C[C@H](CN1CC[C@@H](F)C1)NC(=O)c1c[nH]c2ncc(-c3nn(C)c4cc(Cl)ccc34)nc12`, the melting point lay within 233 to 234 °C.

`O=C(OCCN1CCCCC1)c1c[nH]c2ccccc12` registered a melting point of 123 to 125 °C.

Molecule `CN(C(=O)c1ccc2nonc2c1)C1CCCOC1` (stereo not given) yielded a melting point of 134 to 135 °C.

In turn, `O=C1O[C@@H](CNC(=S)C(F)F)CN1c1ccc(N2CCS(=O)(=O)CC2)c(F)c1` had a melting point of 146 to 147 °C.

In turn, `CC(C)(C#N)c1cc(CCCn2cncn2)cc(C(C)(C)C#N)c1` came in with a melting point of 102 to 104 °C.

`CCc1c(C(=O)OC(C)C)ncc2[nH]c3ccc4ncc(C)nc4c3c12` had a melting point of 215 to 216 °C.

Regarding `Fc1cc(N2CCN(CCc3coc4ccc(F)cc34)CC2)c2ncccc2c1`, the melting point was found to be 55 °C.

`COC(=O)C=C(Br)SC#N`: the melting point fell in the range of 139 to 142 °C.

Molecule `Cc1[nH]c(C=O)c(C)c1CCC(=O)O` gave a melting point of 145 to 147 °C.

As to `CCCc1nc(CO)c(C(=O)OCC)n1Cc1ccc(-c2ccccc2C(=O)OC(C)(C)C)cc1`, the melting point lay within 108 to 110 °C.

Molecule `CCOC(=O)CNc1c([N+](=O)[O-])cc([N+](=O)[O-])c2ccccc12` gave a melting point greater than 305 °C.

`CC(=O)Nc1ccc([N+](=O)[O-])cc1-c1cc([N+](=O)[O-])ccc1NC(C)=O` came in with a melting point of 263 to 265 °C.

In turn, `COc1ncc(C)cc1Nc1cc(C#N)c2c(c1)[C@@H]1CNCC[C@@H]1N2C` had a melting point of 76 to 80 °C.

On to `CCC(CC)n1cc(Br)nc(N2CCc3cc(Cl)cc(Cl)c32)c1=O`, for which the melting point was in the range of 158 to 160 °C.

Molecule `CC(C)(C)c1ccc(C(=O)Nc2cn3nc(-c4cnn(CCO)c4)ccc3n2)cc1` gave a melting point of 226 to 229 °C.

In the case of `COC(=O)COc1cc(C(=O)OC)nc2ccccc12`, the melting point lay in the range of 121 to 123 °C.

For `O=C(CCl)c1ccc2c(c1)[C@H](NC(=O)C(F)(F)F)CC2`, the melting point is 166 to 167 °C.

`CN1CC=C(c2c[nH]c3ccc(Oc4ccccc4)cc23)CC1`: the melting point lay in the range of 135 to 137 °C.

For the molecule `COC(=O)c1sccc1S(=O)(=O)NC(=O)Nc1nc(C)cc(C)n1`, the melting point fell in the range of 191 to 193 °C.

The molecule `CC(=O)OC1C(C)OC(Sc2ccccc2)C(OCc2ccccc2)C1OC(C)=O` (stereo not given) registered a melting point of 124 °C.

On to `Cc1oc(-c2ccccc2)nc1COc1ccc(CCCCCBr)cc1`, for which the melting point was in the range of 58 to 59 °C.

The molecule `COC(=O)c1cc(N2CCCC2)c(Oc2ccccc2)c(S(=O)(=O)Cl)c1` showed a melting point of 108 to 112 °C.

`O=C(O)Cc1ccc(N2Cc3ccccc3C2=O)cc1`: the melting point is 210 to 211 °C.

For the molecule `O=C(O)Cc1coc2cc(OCc3ccc(OCc4ccc(C(F)(F)F)cc4)cc3)ccc12`, the melting point was in the range of 161 to 163 °C.

`COc1ccc(N2CCN(NC(=S)NCC(OC)OC)CC2)cc1` gave a melting point of 157 °C.

In turn, `COCC(=O)N[C@H]1CC[C@H](CCN2CCN(c3nccc4ccoc34)CC2)CC1` registered a melting point of 132 °C.

With `NC(=O)N1CCC(Oc2c(F)c(F)c(F)c(F)c2F)CC1`, the melting point fell in the range of 170 to 172 °C.

For `Cn1cc(C=O)c2cccc(F)c21`, the melting point was in the range of 92 to 94 °C.

For the molecule `C=C(c1ccc(C(=O)O)s1)c1cc2cc(C(F)(F)F)ccc2n1S(=O)(=O)c1cccc(C(C)(C)C)c1`, the melting point stood at 195 °C.

As for `O=C(NCc1ccc(Cl)cc1)c1cn2c(CSc3ccccc3)cc3cc(CN4CCOCC4)cc(c1=O)c32`, the melting point fell in the range of 173 to 175 °C.

As for `CC(=O)NCC(C)(C)c1ccc(C(=O)Nc2cn3cc(-n4ccnc4)ccc3n2)cc1`, the melting point lay in the range of 242 to 244 °C.

`Cc1c(N2CC(O)C2)c(F)cc2c(=O)c(C(=O)O)cn(-c3cc(N)c(F)cc3F)c12` gave a melting point of 206 to 208 °C.

Molecule `O=C(O)c1cccc(Oc2cccc(-c3nn(Cc4ccc(C(F)(F)P(=O)(O)O)c(Br)c4)c(=Nc4ccc(Cl)c(Cl)c4)s3)c2)c1` had a melting point of 210 to 215 °C.

For `CCOC(=O)COc1cc(-n2ncc(=O)n(C)c2=O)c(Cl)cc1Cl`, the melting point is 115 to 117 °C.

`Cc1cccc2nc(CCl)cn12` returned a melting point of 120 to 121 °C.

`Fc1ccc2nccc(Cl)c2c1`: the melting point was 71 to 74 °C.

As for `COC(=O)c1ccc(OCCCc2ccccc2)cc1`, the melting point was 61 to 61.5 °C.

Regarding `Cc1cncn1Cc1nc2ccccc2n1-c1ccccc1`, the melting point is 100 to 102 °C.

Take `Nc1c(N=O)c(=O)n(CCC2CCCCC2)c(=O)n1CCC1CCCCC1`: the melting point fell in the range of 231 to 233 °C.

In turn, `CCCCCC(=O)C=Cc1ccc(O)c(O)c1` displayed a melting point of 130 to 131 °C.

`Cc1cnc2c(c1)CCCC2NC(N)=S` (stereo not given) came in with a melting point of 114 °C.

For the molecule `O=C(O)c1[nH]c2ccc(Cl)cc2c1S(=O)(=O)c1nccs1`, the melting point was in the range of 260 to 261 °C.

`CN1CCN(c2cccc(-c3cnn4c(N)c(-c5ccccc5Cl)cnc34)c2)CC1` displayed a melting point of 200 to 203 °C.

In turn, `COc1cc2c(cc1[N+](=O)[O-])-c1c(-c3cccs3)c3c(n1CC2)C(=O)N(C(C)(C)C)CCC3` displayed a melting point of 279 to 280 °C.

`COc1ccc(N2CCOCC2)c2sc(-c3nc4ccc(N5CCOCC5)nc4[nH]3)nc12` displayed a melting point of 260 to 262 °C.

`COc1cccnc1C(O)c1cc(F)ccc1F` (stereo not given) had a melting point of 94 to 95 °C.

`Fc1ccc(Cl)c2ncccc12` came in with a melting point of 74 to 76 °C.

The molecule `Cc1ccc(-c2ccccc2)c(C)c1CO` gave a melting point of 77 to 78 °C.

Consider `CC(=O)N[C@H]1C[C@H](C)N(C(=O)OC(C)(C)C)C1`, for which the melting point was in the range of 108 to 110 °C.

The molecule `O=c1c2c(Cl)cc(Cl)cc2n(Cc2ccccc2)c(=O)n1Cc1ccccc1Br` yielded a melting point of 129 to 132 °C.

`O=C(C[C@@H](CCCC1CCCCC1)c1nc(Cn2cncn2)no1)NO` yielded a melting point of 118 to 120 °C.

`Cc1c(SCCCSc2ccncc2)ccnc1CSc1ccncc1` gave a melting point of 116 to 118 °C.

Molecule `CC(=O)NC[C@H]1CN(c2ccc(C(=O)c3cc(C#N)c4ccccn34)cc2)C(=O)O1` came in with a melting point of 255 to 257 °C.

With `O=Cc1ccc(-c2nn(Cc3ccccc3)c3ccccc23)o1`, the melting point stood at 108 °C.

For `Cc1ccc(N2C(=O)C(O)=C(C(=O)c3ccc(C(C)C)cc3)C2c2ccc(OC(C)C)cn2)nn1` (stereo not given), the melting point lay within 243 to 245 °C.

For the molecule `COCCOc1cnn(-c2nc3ccccc3c(=O)[nH]2)c1`, the melting point was 119 to 124 °C.

For `COc1ccc(C(=O)Nc2cc(NC(=O)c3cccc(N)c3)ccc2C)cc1OC`, the melting point is 179 to 180 °C.

For `Nc1c2c(nc3ccccc13)CCCC2OCCBr` (stereo not given), the melting point stood at 164 °C.

As for `CCN(CC)CCNC(=O)c1cccc2c(=O)c3cc(I)ccc3[nH]c12`, the melting point fell in the range of 140 to 142 °C.

The molecule `Cc1c(CCCl)c(=O)oc2cc(O)cc(O)c12` showed a melting point of 218 to 220 °C.

For the molecule `O=C(CC(=O)C(F)F)c1ccc(Cl)cc1`, the melting point is 65 to 66.5 °C.

`CC(C)c1ccc(-c2nc(COc3ccc(OC(C)(C)C(=O)O)cc3)no2)cc1` displayed a melting point of 103 °C.

In the case of `Cc1nccc(O)c1[N+](=O)[O-]`, the melting point worked out at 140 °C.
